Target: hCA I (Homo sapiens, UniProt P00915)
Experiment: stopped-flow CO2 hydrase assay, hCA I
Assay type: biochemical
Conditions: incubation time 6 h, mean of three experiments
Procedure: (§1) The target coumarins 5a–p and 7a–c were examined for their CA inhibitory actions towards the ubiquitous CA I and II (cytosolic) as well as the tumour-associated CA IX and XII isozymes by the use of a stopped-flow CO2 hydrase assay, using acetazolamide (AZA) as a reference compound.
(§2) The experimental procedures utilised for CA inhibitory assay of the target compounds were carried out as described earlier, and presented in the Supplementary Materials.

Sequence of hCA I (P00915 whole entry): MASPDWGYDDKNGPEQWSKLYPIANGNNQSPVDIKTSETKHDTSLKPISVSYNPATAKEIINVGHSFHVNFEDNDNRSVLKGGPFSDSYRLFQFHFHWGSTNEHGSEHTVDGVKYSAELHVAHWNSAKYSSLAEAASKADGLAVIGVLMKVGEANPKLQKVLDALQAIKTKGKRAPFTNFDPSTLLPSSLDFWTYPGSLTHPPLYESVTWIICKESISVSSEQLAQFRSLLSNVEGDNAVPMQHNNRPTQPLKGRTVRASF

Row | Structure (SMILES) | Ki [nM]
1 | O=C(Nc1cc(Cl)cc(Cl)c1)Nc1ccc2oc(=O)ccc2c1 [Compound 5j, 1-(3,5-Dichlorophenyl)-3-(2-oxo-2H-chromen-6-yl)urea] | > 100000
2 | Cc1cc(C)cc(NC(=O)Nc2ccc3oc(=O)ccc3c2)c1 [Compound 5k, 1-(3,5-Dimethylphenyl)-3-(2-oxo-2H-chromen-6-yl)urea] | > 100000
3 | O=C(Nc1ccc2oc(=O)ccc2c1)Nc1ccc(Cl)cc1Cl [Compound 5l, 1-(2,4-Dichlorophenyl)-3-(2-oxo-2H-chromen-6-yl)urea] | > 100000
4 | O=C(Nc1ccc2oc(=O)ccc2c1)c1ccc(Cl)c(C(F)(F)F)c1 [Compound 7a, 4-Chloro-N-(2-oxo-2H-chromen-6-yl)-3-(trifluoromethyl)benzamide] | > 100000
5 | O=C(Nc1ccc2oc(=O)ccc2c1)c1cc(C(F)(F)F)cc(C(F)(F)F)c1 [Compound 7b, N-(2-Oxo-2H-chromen-6-yl)-3,5-bis(trifluoromethyl)benzamide] | > 100000
6 | O=C(Nc1ccc2oc(=O)ccc2c1)c1cc(F)cc(F)c1 [Compound 7c, 3,5-Difluoro-N-(2-oxo-2H-chromen-6-yl)benzamide] | > 100000

Target: hCA II (Homo sapiens, UniProt P00918)
Experiment: stopped-flow CO2 hydrase assay, hCA II
Assay type: biochemical
Conditions: incubation time 6 h, mean of three experiments
Procedure: as §1, §2

Row | Structure (SMILES) | Ki [nM]
7 | O=C(Nc1cc(Cl)cc(Cl)c1)Nc1ccc2oc(=O)ccc2c1 [Compound 5j, 1-(3,5-Dichlorophenyl)-3-(2-oxo-2H-chromen-6-yl)urea] | > 100000
8 | Cc1cc(C)cc(NC(=O)Nc2ccc3oc(=O)ccc3c2)c1 [Compound 5k, 1-(3,5-Dimethylphenyl)-3-(2-oxo-2H-chromen-6-yl)urea] | > 100000
9 | O=C(Nc1ccc2oc(=O)ccc2c1)Nc1ccc(Cl)cc1Cl [Compound 5l, 1-(2,4-Dichlorophenyl)-3-(2-oxo-2H-chromen-6-yl)urea] | > 100000
10 | O=C(Nc1ccc2oc(=O)ccc2c1)c1ccc(Cl)c(C(F)(F)F)c1 [Compound 7a, 4-Chloro-N-(2-oxo-2H-chromen-6-yl)-3-(trifluoromethyl)benzamide] | > 100000
11 | O=C(Nc1ccc2oc(=O)ccc2c1)c1cc(C(F)(F)F)cc(C(F)(F)F)c1 [Compound 7b, N-(2-Oxo-2H-chromen-6-yl)-3,5-bis(trifluoromethyl)benzamide] | > 100000
12 | O=C(Nc1ccc2oc(=O)ccc2c1)c1cc(F)cc(F)c1 [Compound 7c, 3,5-Difluoro-N-(2-oxo-2H-chromen-6-yl)benzamide] | > 100000

Target: hCA IX (Homo sapiens, UniProt Q16790)
Experiment: stopped-flow CO2 hydrase assay, hCA IX
Assay type: biochemical
Conditions: incubation time 6 h, mean of three experiments
Procedure: as §1, §2

Row | Structure (SMILES) | Ki [nM]
13 | O=C(Nc1cc(Cl)cc(Cl)c1)Nc1ccc2oc(=O)ccc2c1 [Compound 5j, 1-(3,5-Dichlorophenyl)-3-(2-oxo-2H-chromen-6-yl)urea] | 19.9
14 | Cc1cc(C)cc(NC(=O)Nc2ccc3oc(=O)ccc3c2)c1 [Compound 5k, 1-(3,5-Dimethylphenyl)-3-(2-oxo-2H-chromen-6-yl)urea] | 42.9
15 | O=C(Nc1ccc2oc(=O)ccc2c1)Nc1ccc(Cl)cc1Cl [Compound 5l, 1-(2,4-Dichlorophenyl)-3-(2-oxo-2H-chromen-6-yl)urea] | 50.6
16 | O=C(Nc1ccc2oc(=O)ccc2c1)c1ccc(Cl)c(C(F)(F)F)c1 [Compound 7a, 4-Chloro-N-(2-oxo-2H-chromen-6-yl)-3-(trifluoromethyl)benzamide] | 82.4
17 | O=C(Nc1ccc2oc(=O)ccc2c1)c1cc(C(F)(F)F)cc(C(F)(F)F)c1 [Compound 7b, N-(2-Oxo-2H-chromen-6-yl)-3,5-bis(trifluoromethyl)benzamide] | 55.6
18 | O=C(Nc1ccc2oc(=O)ccc2c1)c1cc(F)cc(F)c1 [Compound 7c, 3,5-Difluoro-N-(2-oxo-2H-chromen-6-yl)benzamide] | 61

Target: hCA XII (Homo sapiens, UniProt O43570)
Experiment: stopped-flow CO2 hydrase assay, hCA XII
Assay type: biochemical
Conditions: incubation time 6 h, mean of three experiments
Procedure: as §1, §2

Sequence of hCA XII (O43570 25-354): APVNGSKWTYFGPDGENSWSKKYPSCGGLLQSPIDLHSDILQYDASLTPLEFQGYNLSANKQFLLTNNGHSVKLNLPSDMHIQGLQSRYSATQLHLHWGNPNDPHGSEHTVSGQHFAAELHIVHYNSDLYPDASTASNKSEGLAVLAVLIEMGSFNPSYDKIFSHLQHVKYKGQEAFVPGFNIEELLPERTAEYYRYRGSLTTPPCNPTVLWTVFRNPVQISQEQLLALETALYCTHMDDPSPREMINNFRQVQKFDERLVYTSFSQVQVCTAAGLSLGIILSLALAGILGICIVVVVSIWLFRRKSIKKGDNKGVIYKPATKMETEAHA

Row | Structure (SMILES) | Ki [nM]
19 | O=C(Nc1cc(Cl)cc(Cl)c1)Nc1ccc2oc(=O)ccc2c1 [Compound 5j, 1-(3,5-Dichlorophenyl)-3-(2-oxo-2H-chromen-6-yl)urea] | 23.4
20 | Cc1cc(C)cc(NC(=O)Nc2ccc3oc(=O)ccc3c2)c1 [Compound 5k, 1-(3,5-Dimethylphenyl)-3-(2-oxo-2H-chromen-6-yl)urea] | 27.4
21 | O=C(Nc1ccc2oc(=O)ccc2c1)Nc1ccc(Cl)cc1Cl [Compound 5l, 1-(2,4-Dichlorophenyl)-3-(2-oxo-2H-chromen-6-yl)urea] | 56.7
22 | O=C(Nc1ccc2oc(=O)ccc2c1)c1ccc(Cl)c(C(F)(F)F)c1 [Compound 7a, 4-Chloro-N-(2-oxo-2H-chromen-6-yl)-3-(trifluoromethyl)benzamide] | 42.8
23 | O=C(Nc1ccc2oc(=O)ccc2c1)c1cc(C(F)(F)F)cc(C(F)(F)F)c1 [Compound 7b, N-(2-Oxo-2H-chromen-6-yl)-3,5-bis(trifluoromethyl)benzamide] | 37.5
24 | O=C(Nc1ccc2oc(=O)ccc2c1)c1cc(F)cc(F)c1 [Compound 7c, 3,5-Difluoro-N-(2-oxo-2H-chromen-6-yl)benzamide] | 40.5

Test system: HCT-116 cells
Experiment: MTT antiproliferative assay, HCT-116
Assay type: cell-based, human
Conditions: Homo sapiens, HCT-116, HCT116, 10 µM, mean ± SEM of three experiments, read-out: % Growth inhibition HCT116 10 µM
Procedure: (§3) Encouraged by the favourable selectivity profile of ureidocoumarins 5a–p and amidocoumarins 7a–c towards hCA IX and hCA XII, they were further examined for their prospective antiproliferative activity against human colorectal (HCT-116) and breast (MCF-7) cancer cell lines, adopting the MTT assay.
(§4) The evaluation of anticancer activity of the target compounds was conducted by MTT assay adopting the literature procedure.

Row | Structure (SMILES) | inhibition at 10 µM [%]
25 | O=C(Nc1cc(Cl)cc(Cl)c1)Nc1ccc2oc(=O)ccc2c1 [Compound 5j, 1-(3,5-Dichlorophenyl)-3-(2-oxo-2H-chromen-6-yl)urea] | 19.2 ± 3.8
26 | Cc1cc(C)cc(NC(=O)Nc2ccc3oc(=O)ccc3c2)c1 [Compound 5k, 1-(3,5-Dimethylphenyl)-3-(2-oxo-2H-chromen-6-yl)urea] | 14.5 ± 2.7
27 | O=C(Nc1ccc2oc(=O)ccc2c1)Nc1ccc(Cl)cc1Cl [Compound 5l, 1-(2,4-Dichlorophenyl)-3-(2-oxo-2H-chromen-6-yl)urea] | 2.6 ± 1.8
28 | O=C(Nc1ccc2oc(=O)ccc2c1)c1ccc(Cl)c(C(F)(F)F)c1 [Compound 7a, 4-Chloro-N-(2-oxo-2H-chromen-6-yl)-3-(trifluoromethyl)benzamide] | 14 ± 2.4
29 | O=C(Nc1ccc2oc(=O)ccc2c1)c1cc(C(F)(F)F)cc(C(F)(F)F)c1 [Compound 7b, N-(2-Oxo-2H-chromen-6-yl)-3,5-bis(trifluoromethyl)benzamide] | 19.6 ± 2.4
30 | O=C(Nc1ccc2oc(=O)ccc2c1)c1cc(F)cc(F)c1 [Compound 7c, 3,5-Difluoro-N-(2-oxo-2H-chromen-6-yl)benzamide] | 21.8 ± 3

Same assay, conditions: Homo sapiens, HCT-116, HCT116, 100 µM, mean ± SEM of three experiments, read-out: % Growth inhibition HCT116 100 µM

Row | Structure (SMILES) | inhibition at 100 µM [%]
31 | O=C(Nc1cc(Cl)cc(Cl)c1)Nc1ccc2oc(=O)ccc2c1 [Compound 5j, 1-(3,5-Dichlorophenyl)-3-(2-oxo-2H-chromen-6-yl)urea] | 91.9 ± 1.1
32 | Cc1cc(C)cc(NC(=O)Nc2ccc3oc(=O)ccc3c2)c1 [Compound 5k, 1-(3,5-Dimethylphenyl)-3-(2-oxo-2H-chromen-6-yl)urea] | 87.4 ± 1.8
33 | O=C(Nc1ccc2oc(=O)ccc2c1)Nc1ccc(Cl)cc1Cl [Compound 5l, 1-(2,4-Dichlorophenyl)-3-(2-oxo-2H-chromen-6-yl)urea] | 6.7 ± 1.7
34 | O=C(Nc1ccc2oc(=O)ccc2c1)c1ccc(Cl)c(C(F)(F)F)c1 [Compound 7a, 4-Chloro-N-(2-oxo-2H-chromen-6-yl)-3-(trifluoromethyl)benzamide] | 42.2 ± 2.5
35 | O=C(Nc1ccc2oc(=O)ccc2c1)c1cc(C(F)(F)F)cc(C(F)(F)F)c1 [Compound 7b, N-(2-Oxo-2H-chromen-6-yl)-3,5-bis(trifluoromethyl)benzamide] | 76 ± 2.5
36 | O=C(Nc1ccc2oc(=O)ccc2c1)c1cc(F)cc(F)c1 [Compound 7c, 3,5-Difluoro-N-(2-oxo-2H-chromen-6-yl)benzamide] | 52 ± 5.1

Test system: MCF-7 cells
Experiment: MTT antiproliferative assay, MCF-7
Assay type: cell-based, human
Conditions: Homo sapiens, MCF7, MCF7, 10 µM, mean ± SEM of three experiments, read-out: % Growth inhibition MCF7 10 µM
Procedure: as §3, §4

Row | Structure (SMILES) | inhibition at 10 µM [%]
37 | O=C(Nc1cc(Cl)cc(Cl)c1)Nc1ccc2oc(=O)ccc2c1 [Compound 5j, 1-(3,5-Dichlorophenyl)-3-(2-oxo-2H-chromen-6-yl)urea] | 6.1 ± 2
38 | Cc1cc(C)cc(NC(=O)Nc2ccc3oc(=O)ccc3c2)c1 [Compound 5k, 1-(3,5-Dimethylphenyl)-3-(2-oxo-2H-chromen-6-yl)urea] | 33.2 ± 3.2
39 | O=C(Nc1ccc2oc(=O)ccc2c1)Nc1ccc(Cl)cc1Cl [Compound 5l, 1-(2,4-Dichlorophenyl)-3-(2-oxo-2H-chromen-6-yl)urea] | 5.9 ± 2.7
40 | O=C(Nc1ccc2oc(=O)ccc2c1)c1ccc(Cl)c(C(F)(F)F)c1 [Compound 7a, 4-Chloro-N-(2-oxo-2H-chromen-6-yl)-3-(trifluoromethyl)benzamide] | 9.9 ± 3.4
41 | O=C(Nc1ccc2oc(=O)ccc2c1)c1cc(C(F)(F)F)cc(C(F)(F)F)c1 [Compound 7b, N-(2-Oxo-2H-chromen-6-yl)-3,5-bis(trifluoromethyl)benzamide] | 11.3 ± 4
42 | O=C(Nc1ccc2oc(=O)ccc2c1)c1cc(F)cc(F)c1 [Compound 7c, 3,5-Difluoro-N-(2-oxo-2H-chromen-6-yl)benzamide] | 21.1 ± 3.3

Same assay, conditions: Homo sapiens, MCF7, MCF7, 100 µM, mean ± SEM of three experiments, read-out: % Growth inhibition MCF7 100 µM

Row | Structure (SMILES) | inhibition at 100 µM [%]
43 | O=C(Nc1cc(Cl)cc(Cl)c1)Nc1ccc2oc(=O)ccc2c1 [Compound 5j, 1-(3,5-Dichlorophenyl)-3-(2-oxo-2H-chromen-6-yl)urea] | 91.1 ± 0.6
44 | Cc1cc(C)cc(NC(=O)Nc2ccc3oc(=O)ccc3c2)c1 [Compound 5k, 1-(3,5-Dimethylphenyl)-3-(2-oxo-2H-chromen-6-yl)urea] | 66.7 ± 5
45 | O=C(Nc1ccc2oc(=O)ccc2c1)Nc1ccc(Cl)cc1Cl [Compound 5l, 1-(2,4-Dichlorophenyl)-3-(2-oxo-2H-chromen-6-yl)urea] | 6.6 ± 2.5
46 | O=C(Nc1ccc2oc(=O)ccc2c1)c1ccc(Cl)c(C(F)(F)F)c1 [Compound 7a, 4-Chloro-N-(2-oxo-2H-chromen-6-yl)-3-(trifluoromethyl)benzamide] | 19 ± 2.1
47 | O=C(Nc1ccc2oc(=O)ccc2c1)c1cc(C(F)(F)F)cc(C(F)(F)F)c1 [Compound 7b, N-(2-Oxo-2H-chromen-6-yl)-3,5-bis(trifluoromethyl)benzamide] | 62.9 ± 6.4
48 | O=C(Nc1ccc2oc(=O)ccc2c1)c1cc(F)cc(F)c1 [Compound 7c, 3,5-Difluoro-N-(2-oxo-2H-chromen-6-yl)benzamide] | 21.4 ± 4.7

Test system: not given
Experiment: not given
Conditions: not given

Row | Structure (SMILES) | melting point [°C]
49 | O=C(Nc1cc(Cl)cc(Cl)c1)Nc1ccc2oc(=O)ccc2c1 [Compound 5j, 1-(3,5-Dichlorophenyl)-3-(2-oxo-2H-chromen-6-yl)urea] | 252 to 253
50 | Cc1cc(C)cc(NC(=O)Nc2ccc3oc(=O)ccc3c2)c1 [Compound 5k, 1-(3,5-Dimethylphenyl)-3-(2-oxo-2H-chromen-6-yl)urea] | 238 to 239
51 | O=C(Nc1ccc2oc(=O)ccc2c1)Nc1ccc(Cl)cc1Cl [Compound 5l, 1-(2,4-Dichlorophenyl)-3-(2-oxo-2H-chromen-6-yl)urea] | 291 to 292
52 | O=C(Nc1ccc2oc(=O)ccc2c1)c1ccc(Cl)c(C(F)(F)F)c1 [Compound 7a, 4-Chloro-N-(2-oxo-2H-chromen-6-yl)-3-(trifluoromethyl)benzamide] | 272 to 273
53 | O=C(Nc1ccc2oc(=O)ccc2c1)c1cc(C(F)(F)F)cc(C(F)(F)F)c1 [Compound 7b, N-(2-Oxo-2H-chromen-6-yl)-3,5-bis(trifluoromethyl)benzamide] | 240 to 241
54 | O=C(Nc1ccc2oc(=O)ccc2c1)c1cc(F)cc(F)c1 [Compound 7c, 3,5-Difluoro-N-(2-oxo-2H-chromen-6-yl)benzamide] | 301 to 303

— publication PMC9897768, “Discovery of new 6-ureido/amidocoumarins as highly potent and selective inhibitors for the tumour-relevant carbonic anhydrases IX and XII” (Journal of Enzyme Inhibition and Medicinal Chemistry, 2023)
